Where a name gives a salt, the structure may show the parent alone.

The nature of the series: in vitro pharmaceutical release in simulated gastric fluid and simulated intestinal fluid. The series is classed as physicochemical. Conditions: for cumulative release: from the capsule, simulated gastric fluid (pH=1.7) / simulated intestinal fluid (pH=7.4), time not stated; for release kinetics model fit: release from the fibres, in vitro. An excerpt: FIGS. 7A and 7B illustrate the use of a pharmaceutical delivery device in accordance with an embodiment of the present invention to release two pharmaceuticals at the same time, each with their own unique release profile, in which FIG. 7A is a pharmaceutical release profile of APAP and CM from the various capsule configurations in a simulated gastric fluid (pH=1.7) and a simulated intestinal fluid (pH=7.4), and FIG. 7B is a detailed pharmaceutical release profile for APAP and CM from the composite capsule in the first two hours in a simulated gastric fluid (pH=1.7); and
The capsule sample was immersed into a 100 ml beaker containing 50 mL PBS solution being stirred at 100 rpm. The whole separation process was finished in 169 s and the complete dissolution of PVP finished until 295 s. Also, regulation and controlled movement of each component pharmaceutical layer after separation was achieved by adding Fe3O4 nanoparticles and an external magnetic field. The separated capsule containing the printed outer PCL with embedded Fe3O4 nanoparticles and travel quickly from left to right under an applied external magnet field while the inner layer without any nanoparticles remained stationary (FIG. 5). This travel distance was covered within 3 s at a velocity of 6.7 mm/s. […] This allows for multifunctional uses of the capsule such as for targeted pharmaceutical release using an externally located magnet, and as a magnetic resonance tracer. […] The cumulative release of APAP was more than 90% while the cumulative release of CM was around 70%.

Regarding `CC(=O)Nc1ccc(O)cc1` [APAP, paracetamol], the cumulative release entry was “more than 90%” and the “release kinetics model fit” value is “mostly fit the Higuchi model”. Where the note is “first 2 hours in simulated gastric fluid (pH=1.7), composite capsule”, the release rate comparison result is reported as “faster than CM”.
On to `CN(C)CCC(c1ccc(Cl)cc1)c1ccccn1` (centres unmarked) [CM, chlorpheniramine maleate], for which the cumulative release result is recorded as “around 70%” and the “release kinetics model fit” value was “mostly fit the Higuchi model”.

The record behind these values is patent US20220409531A1, “PHARMACEUTICAL DELIVERY DEVICE AND METHOD OF MANUFACTURE” (University of Ulster, priority 2019, published 2022).
